From patent US20080305186A1, “Method and Composition for the Treatment of Cardiac Hypertrophy” (BOARD OF REGENTS, THE UNIVERSITY OF TEXAS SYSTEM, priority 2007, published 2008)

Tested on: cardiac gene expression
Assay: Real-time quantitative RT-PCR of heart RNA
Type: in vivo, mice
Parameters: key to Oncostatin receptor (Osmr), Real-time RT-PCR: Ind/Red (Induced/reduced) are used instead of fold-changes where no transcript was detected in one of the two samples being compared; Ind/Red (Induced/reduced) are used instead of fold-changes where no transcript was detected in one of the two samples being compared
Settings: drug + isoproterenol vs isoproterenol only; for Oncostatin receptor (Osmr), Real-time RT-PCR: no transcript detected in one of the two samples
Method: Real-time reverse transcriptase-polymerase chain reaction (RT-PCR). Real-time quantitative RT-PCR was performed in the iCycler iQ multi-Color real-time PCR detection system (Bio-Rad, Hercules, Calif.) using SYBR Green I dye (Qiagen, Valencia, Calif.) as described by the manufacturer. Briefly, 100 ng of RNA was placed into a 25 μl reaction volume containing 2.5 μl of each primer set (Quantitect Primer Assays, Qiagen), 12.5 μl SYBER Green PCR master mix, and 0.25 μl reverse transcriptase. A typical protocol included reverse transcription at 50° C. for 30 minutes and a denaturation step at 95° C. for 15 minutes followed by 35 cycles with 94° C. denaturation for 15 seconds, 55 C annealing for 30 seconds and 72 C extension for 30 seconds. Detection of the fluorescent product was performed at the end of the extension period at 60° C. for 20 seconds. To confirm amplification specificity, the PCR products were subjected to a melting curve analysis. […] Targets were normalized to reactions performed using Quantitect GAPDH primer assay (Qiagen), and fold change was determined using the comparative threshold method (20).

SMILES | Oncostatin receptor (Osmr), Real-time RT-PCR | Cyclin G2 (Ccng2), Real-time RT-PCR FC (normalized to GAPDH) [FC] | Cyclin-dependent kinase inhibitor 1A (p21) (Cdkn1a), Real-time RT-PCR FC (normalized to GAPDH) [FC] | Cytokine inducible SH2-containing protein 3 (Socs3), Real-time RT-PCR FC (normalized to GAPDH) [FC] | DNA-damage-inducible transcript 4 (Ddit4), Real-time RT-PCR FC (normalized to GAPDH) [FC] | GATA binding protein 4 (Gata4), Real-time RT-PCR FC (normalized to GAPDH) [FC] | Gem GTPase (Gem), Real-time RT-PCR FC (normalized to GAPDH) [FC] | Lipocalin 2 (Lcn2), Real-time RT-PCR FC (normalized to GAPDH) [FC] | Matrix metalloproteinase 3 (Mmp3), Real-time RT-PCR FC (normalized to GAPDH) [FC] | Metallothionein 1 (MT2), Real-time RT-PCR FC (normalized to GAPDH) [FC] | NADPH oxidase 4 (Nox4), Real-time RT-PCR FC (normalized to GAPDH) [FC] | Phospholipase A2 group VII (platelet-activating factor acetylhydrolase, plasma) (Pla2g7), Real-time RT-PCR FC (normalized to GAPDH) [FC] | S100 calcium binding protein A8 (calgranulin A) (S100a8), Real-time RT-PCR FC (normalized to GAPDH) [FC] | S100 calcium binding protein A9 (calgranulin B) (S100a9), Real-time RT-PCR FC (normalized to GAPDH) [FC] | SET and MYND domain containing 1 (Smyd1), Real-time RT-PCR FC (normalized to GAPDH) [FC] | Serine protease inhibitor 2-2 (Spi2-2) (Serpin3n), Real-time RT-PCR FC (normalized to GAPDH) [FC] | Transformation related protein 53 inducible nuclear protein 1 (Trp53inp1), Real-time RT-PCR FC (normalized to GAPDH) [FC] | Tubulin, alpha 4 (Tuba4), Real-time RT-PCR FC (normalized to GAPDH) [FC]
C[C@H]1c2cccc(O)c2C(=O)C2=C(O)[C@]3(O)C(=O)C(C(N)=O)=C(O)[C@@H](N(C)C)[C@@H]3[C@@H](O)[C@@H]21 [doxycycline] | Red | −5.7 | −7.0 | −4.0 | −5.7 | 4.9 | −1.8 | −9.9 | −3.5 | −14.9 | −4.0 | −1.9 | −181.0 | −104.0 | 1.6 | −3.8 | −1.9 | 36.8
NC(=O)N1c2ccccc2C=Cc2ccccc21 [carbamazepine] | Red |  | −2.5 | −4.3 |  | 2.0 |  |  | −2.5 |  | −3.5 | −3.5 | −2.1 |  | 3.3 | −13.9 | −3.0 | 
